Measurements reported in the NIST ThermoML archive (doi:10.1016/j.tca.2015.12.011).

Assay: excess molar enthalpy (molar enthalpy of mixing); xn = mol fraction of the nth substance listed
Conditions: 100 kPa, Liquid, Calvet calorimetry

[Li] [lithium] + [Ga]
Conditions | excess molar enthalpy [kcal/mol]
891 K, x1 = 0.7508 | -4.11
993 K, x1 = 0.1014 | -1.39
993 K, x1 = 0.2531 | -3.23
1018 K, x1 = 0.7505 | -3.9
1044 K, x1 = 0.4035 | -4.64
1044 K, x1 = 0.5023 | -5.04
1044 K, x1 = 0.6005 | -5.04
